Experimental data as given in PMC8236845.
Where a name gives a salt, the structure may show the parent alone. Read-outs that look alike come from different tables or passages of the source. Numbered stars: 1 amine (or outer) side, 2 acyl side, 3 side chain; on linkers, the order of the positions; unused ones are H or OH. Bridge positions count the residues as written; N and C are the ends. Square brackets hold non-standard residues; d marks the D form. Peptide text beside a SMILES is read from it. * marks the point of attachment. Orn(4R-OH,5R-OH) = O=C([C@H](C[C@@H](O)[C@@H](O)N[*:3])N[*:1])[*:2]; Tetradecanoyl(10R,12S-Me2) = CC[C@H](C)C[C@H](C)CCCCCCCCC(=O)*; hTyr(3S-OH,4S-OH) = N[C@H](C(=O)O)[C@H](O)[C@@H](O)c1ccc(O)cc1; Gln(3R-OH) = NC(=O)C[C@@H](O)[C@H](N)C(=O)O; Pro(3S-OH) = O=C(O)[C@H]1NCC[C@@H]1O; Hyp = O=C(O)[C@@H]1C[C@@H](O)CN1

Biological target: binding of recombinant, trimeric SARS-CoV-2 spike protein to recombinant human ACE2 (Severe acute respiratory syndrome coronavirus 2, UniProt P0DTC2, K986P/R682G/R683S/R685S/V987P)
Assay: biochemical
Set-up: species or system SARS-CoV-2 / human

| Molecule | % Inhibition | other results |
| --- | --- | --- |
| CC(=O)O[C@@]12CO[C@@H]1C[C@H](O)[C@@]1(C)C(=O)[C@H](O)C3=C(C)[C@@H](OC(=O)[C@H](O)[C@@H](NC(=O)OC(C)(C)C)c4ccccc4)C[C@@](O)([C@@H](OC(=O)c4ccccc4)[C@H]21)C3(C)C [Docetaxel Trihydrate] | 95% | – |
| CC(=O)O[C@@]12CO[C@@H]1C[C@H](O)[C@@]1(C)C(=O)[C@H](O)C3=C(C)[C@@H](OC(=O)[C@H](O)[C@@H](NC(=O)OC(C)(C)C)c4ccccc4)C[C@@](O)([C@@H](OC(=O)c4ccccc4)[C@H]21)C3(C)C [Docetaxel] | – | % Inhibition, Screen: 98% |
| CO[C@H]1C[C@H](O[C@H]2[C@H](C)O[C@@H](O[C@@H]3/C(C)=C/C[C@@H]4C[C@@H](C[C@]5(C=C[C@H](C)[C@@H](C6CCCCC6)O5)O4)OC(=O)[C@@H]4C=C(C)[C@@H](O)[C@H]5OC/C(=C\C=C\[C@@H]3C)[C@]54O)C[C@@H]2OC)O[C@@H](C)[C@@H]1O [Doramectin] | 96% | EC50 (read-out: EC 50): 12.8 µM; IC50 (read-out: IC50 Mean): 12.8 µM |
| CN1CCc2nc(C(=O)N[C@@H]3C[C@@H](C(=O)N(C)C)CC[C@@H]3NC(=O)C(=O)Nc3ccc(Cl)cn3)sc2C1 [Edoxaban] | 95% | – |
| COC(=O)N[C@H](C(=O)N1CCC[C@H]1c1nc(-c2ccc3c(c2)O[C@@H](c2ccccc2)n2c-3cc3cc(-c4c[nH]c([C@@H]5CCCN5C(=O)[C@@H](NC(=O)OC)C(C)C)n4)ccc32)c[nH]1)C(C)C [Elbasvir] | 100% | – |
| CN1CCN(c2ccc(C(=O)Nc3n[nH]c4ccc(Cc5cc(F)cc(F)c5)cc34)c(NC3CCOCC3)c2)CC1 [Entrectinib] | 90% | IC50: 58.4 µM |
| C[C@]12CC[C@@H]3c4ccc(OC(=O)c5ccccc5)cc4CC[C@H]3[C@@H]1CC[C@@H]2O [Estradiol benzoate] | 93% | – |
| CO[C@H]1C[C@@H]2CC[C@@H](C)[C@@](O)(O2)C(=O)C(=O)N2CCCC[C@H]2C(=O)O[C@H]([C@H](C)C[C@@H]2CC[C@@H](OCCO)[C@H](OC)C2)CC(=O)[C@H](C)/C=C(\C)[C@@H](O)[C@@H](OC)C(=O)[C@H](C)C[C@H](C)/C=C/C=C/C=C/1C [Everolimus (RAD001), Everolimus] | 94% | – |
| N#Cc1nn(-c2c(Cl)cc(C(F)(F)F)cc2Cl)c(N)c1[S+]([O-])C(F)(F)F (stereo not drawn) [Fipronil] | 91% | – |
| CC[C@@]1(O)C(=O)OCc2c1cc1n(c2=O)Cc2cc3cc(O)ccc3nc2-1 [Hydroxycamptothecin] | 99% | – |
| Cc1ccc(NC(=O)c2ccc(CN3CCN(C)CC3)cc2)cc1Nc1nccc(-c2cccnc2)n1 [Imatinib] | – | inhibition of spike-ACE2 binding in the screen: failed to inhibit |
| CCc1c2c(nc3ccc(OC(=O)N4CCC(N5CCCCC5)CC4)cc13)-c1cc3c(c(=O)n1C2)COC(=O)[C@]3(O)CC [Irinotecan] | – | inhibition of spike-ACE2 binding in the screen: did not inhibit |
| COc1cc(-c2coc3cc4c(c(OC)c3c2=O)OCO4)cc(OC)c1OC [Irisflorentin] | 97% | – |
| COc1cc2nccc(Oc3ccc(NC(=O)NC4CC4)c(Cl)c3)c2cc1C(N)=O [Lenvatinib Mesylate] | 94% | – |
| O=C(NC1CCN(CCCCC2(C(=O)NCC(F)(F)F)c3ccccc3-c3ccccc32)CC1)c1ccccc1-c1ccc(C(F)(F)F)cc1 [Lomitapide Mesylate] | 93% | – |
| OC(c1cc(C(F)(F)F)nc2c(C(F)(F)F)cccc12)C1CCCCN1 (stereo not drawn) [Mefloquine] | – | % inhibition in first-round screen: 77% |
| CN(C)c1ccc2nc3ccc(=[N+](C)C)cc-3sc2c1 [Methylene Blue] | – | % inhibition in first-round screen: 44% |
| C[C@@H]1C[C@H]2[C@@H]3CCC4=CC(=O)C=C[C@]4(C)[C@@]3(Cl)[C@@H](O)C[C@]2(C)[C@@]1(OC(=O)c1ccco1)C(=O)CCl [Mometasone furoate] | 98% | – |
| Cc1c(O)cccc1C(=O)N[C@@H](CSc1ccccc1)[C@H](O)CN1C[C@H]2CCCC[C@H]2C[C@H]1C(=O)NC(C)(C)C [Nelfinavir Mesylate] | 94% | – |
| Cc1cn(-c2cc(NC(=O)c3ccc(C)c(Nc4nccc(-c5cccnc5)n4)c3)cc(C(F)(F)F)c2)cn1 [Nilotinib AMN-107, Nilotinib] | 99% | – |
| Cc1cn(-c2cc(NC(=O)c3ccc(C)c(Nc4nccc(-c5cccnc5)n4)c3)cc(C(F)(F)F)c2)cn1.Cl [Nilotinib HCl, Nilotinib Hydrochloride] | 99% | – |
| CCCCCCCCN=c1ccn(CCCCCCCCCCn2ccc(=NCCCCCCCC)cc2)cc1 [Octenidine Dihydrochloride] | 100% | – |
| C=CC(=O)Nc1cccc(Oc2nc(Nc3ccc(N4CCN(C)CC4)cc3)nc3ccsc23)c1 [Olmutinib] | 98% | – |

| Molecule | % Inhibition | other results |
| --- | --- | --- |
| COC(=O)N[C@H](C(=O)N1CCC[C@H]1C(=O)Nc1ccc([C@@H]2CC[C@@H](c3ccc(NC(=O)[C@@H]4CCCN4C(=O)[C@@H](NC(=O)OC)C(C)C)cc3)N2c2ccc(C(C)(C)C)cc2)cc1)C(C)C [Ombitasvir (ABT-267), Ombitasvir] | 92% | – |
| COc1cc([C@@H]2c3cc4c(cc3[C@H](O)[C@H]3COC(=O)[C@@H]23)OCO4)cc(OC)c1OC [Picropodophyllin] | 98% | – |
| CC[C@H](C)C[C@H](C)CCCCCCCCC(=O)N[C@H]1C[C@@H](O)[C@@H](O)NC(=O)[C@@H]2[C@@H](O)CCN2C(=O)[C@H]([C@H](O)CC(N)=O)NC(=O)[C@H]([C@H](O)[C@@H](O)c2ccc(O)cc2)NC(=O)[C@@H]2C[C@@H](O)CN2C(=O)[C@H]([C@@H](C)O)NC1=O [Pneumocandin B0] ({Tetradecanoyl(10R,12S-Me2)}-[Orn(4R-OH,5R-OH)]T[Hyp][hTyr(3S-OH,4S-OH)][Gln(3R-OH)][Pro(3S-OH)]; lactam 1-C) | 98% | EC50 (read-out: EC50 (corrected)): 72.8 µM |
| CC[C@@H]([C@H](C)O)n1ncn(-c2ccc(N3CCN(c4ccc(OC[C@@H]5CO[C@@](Cn6cncn6)(c6ccc(F)cc6F)C5)cc4)CC3)cc2)c1=O [Posaconazole] | 97% | – |
| CC[C@@]1(O)C(=O)OCc2c1cc1n(c2=O)Cc2cc3cc(O)ccc3nc2-1 [S-(10)-hydroxycamptothecin, (S)-10-Hydroxycamptothecin] | 100% | – |
| CO[C@H]1C[C@H](O[C@@H]2/C(C)=C/C[C@@H]3C[C@@H](C[C@]4(CC[C@H](C)[C@@H](C5CCCCC5)O4)O3)OC(=O)[C@@H]3C=C(C)/C(=N/O)[C@H]4OC/C(=C\C=C\[C@@H]2C)[C@]43O)O[C@@H](C)[C@@H]1O [Selamectin] | 97% | – |
| CNC(=O)c1cc(Oc2ccc(NC(=O)Nc3ccc(Cl)c(C(F)(F)F)c3)cc2)ccn1 [Sorafenib Tosylate] | – | % Inhibition, Screen: 21% |
| CN1CC(=O)N2[C@H](c3ccc4c(c3)OCO4)c3[nH]c4ccccc4c3C[C@@H]2C1=O [Tadalafil] | 96% | – |
| CO[C@H]1C[C@@H]2CC[C@@H](C)[C@@](O)(O2)C(=O)C(=O)N2CCCC[C@H]2C(=O)O[C@H]([C@H](C)C[C@@H]2CC[C@@H](OC(=O)C(C)(CO)CO)[C@H](OC)C2)CC(=O)[C@H](C)/C=C(\C)[C@@H](O)[C@@H](OC)C(=O)[C@H](C)C[C@H](C)/C=C/C=C/C=C/1C [Temsirolimus (CCI-779, NSC 683864), Temsirolimus] | 96% | – |
| COc1cc([C@@H]2c3cc4c(cc3[C@@H](O[C@@H]3O[C@@H]5CO[C@@H](c6cccs6)O[C@H]5[C@H](O)[C@H]3O)[C@H]3COC(=O)[C@H]23)OCO4)cc(OC)c1O [Teniposide] | 97% | – |
| C=C(NC(=O)C(=C)NC(=O)c1csc(C2=N[C@@H]3c4csc(n4)[C@H]4NC(=O)c5csc(n5)[C@H]([C@](C)(O)[C@@H](C)O)NC(=O)[C@H]5CSC(=N5)/C(=C/C)NC(=O)[C@H]([C@@H](C)O)NC(=O)c5csc(n5)[C@]3(CC2)NC(=O)[C@H](C)NC(=O)C(=C)NC(=O)[C@H](C)NC(=O)[C@H]([C@@H](C)CC)N[C@@H]2C=Cc3c([C@H](C)O)cc(nc3[C@H]2O)C(=O)O[C@@H]4C)n1)C(N)=O [Thiostrepton] | 99% | – |
| CCOC(=O)c1c(N)sc2c1CCN(Cc1ccccc1)C2.Cl [Tinoridine Hydrochloride] | 90% | EC50 (read-out: EC50 (corrected)): 257 µM |
| Cn1cncc1[C@@](N)(c1ccc(Cl)cc1)c1ccc2c(c1)c(-c1cccc(Cl)c1)cc(=O)n2C [Tipifarnib] | 98% | – |
| CC[C@@]1(O)C(=O)OCc2c1cc1n(c2=O)Cc2cc3c(CN(C)C)c(O)ccc3nc2-1 [Topotecan] | – | inhibition of spike-ACE2 binding in the screen: did not inhibit |
| NC1CCN(c2nc3c(cc2F)c(=O)c(C(=O)O)cn3-c2ccc(F)cc2F)C1 (stereo not drawn) [Tosufloxacin (P-Toluenesulfonic Acid), Tosufloxacin] | 97% | – |
| Nc1nc(N)c2nc(-c3ccccc3)c(N)nc2n1 [Triamterene] | 91% | – |
| COC[C@H]1C[C@@H](c2nc(-c3ccc4c(c3)COc3cc5c(ccc6nc([C@@H]7CC[C@H](C)N7C(=O)[C@@H](NC(=O)OC)C(C)C)[nH]c65)cc3-4)c[nH]2)N(C(=O)[C@H](NC(=O)OC)c2ccccc2)C1 [Velpatasvir] | 93% | – |
| N#Cc1ccc2[nH]cc(CCCCN3CCN(c4ccc5oc(C(N)=O)cc5c4)CC3)c2c1 [Vilazodone HCl] | 99% | – |
| CO[C@H]1C[C@@H]2CC[C@@H](C)[C@@](O)(O2)C(=O)C(=O)N2CCCC[C@H]2C(=O)O[C@H]([C@H](C)C[C@@H]2CC[C@H](n3cnnn3)[C@H](OC)C2)CC(=O)[C@H](C)/C=C(\C)[C@@H](O)[C@@H](OC)C(=O)[C@H](C)C[C@H](C)/C=C/C=C/C=C/1C [Zotarolimus(ABT-578), Zotarolimus] | 96% | – |
| Avermectin B1 | 98% | – |
| Cefotiam Hexetil Hydrochloride | 99% | EC50 (read-out: EC50 (corrected)): 37.3 µM |
| Ivermectin | – | % inhibition in first-round screen: 89% |
